COc1cc(C=O)ccc1O
solubility (mole fraction) (in ethanol, 293.15 K): 0.0713
solubility (mole fraction) (in ethanol, 298.15 K): 0.0779
solubility (mole fraction) (in ethanol, 303.15 K): 0.0841
solubility (mole fraction) (in ethanol, 308.15 K): 0.0926
solubility (mole fraction) (in ethanol, 313.15 K): 0.105
solubility (mole fraction) (in ethanol, 318.15 K): 0.118
solubility (mole fraction) (in ethanol, 323.15 K): 0.141
solubility (mole fraction) (in water, 293.15 K): 0.00116
solubility (mole fraction) (in water, 298.15 K): 0.00141
solubility (mole fraction) (in water, 303.15 K): 0.00179
solubility (mole fraction) (in water, 308.15 K): 0.00202
solubility (mole fraction) (in water, 313.15 K): 0.00234
solubility (mole fraction) (in water, 318.15 K): 0.00267
solubility (mole fraction) (in water, 323.15 K): 0.00298

Reference: BigSolDB 2.1
